# Test results as given in ChEMBL document CHEMBL3991601, “The target landscape of clinical kinase drugs” (Science, 2017).
# Calls of active or inactive are those of the source. Cut-off read from the data, not from the text of the source, for most assays here: actives have a measured Kd and inactives only a lower limit.
# Molecular target: T1, Membrane-associated tyrosine- and threonine-specific cdc2-inhibitory kinase (Homo sapiens, UniProt Q99640)
# T1 sequence (Q99640 whole entry): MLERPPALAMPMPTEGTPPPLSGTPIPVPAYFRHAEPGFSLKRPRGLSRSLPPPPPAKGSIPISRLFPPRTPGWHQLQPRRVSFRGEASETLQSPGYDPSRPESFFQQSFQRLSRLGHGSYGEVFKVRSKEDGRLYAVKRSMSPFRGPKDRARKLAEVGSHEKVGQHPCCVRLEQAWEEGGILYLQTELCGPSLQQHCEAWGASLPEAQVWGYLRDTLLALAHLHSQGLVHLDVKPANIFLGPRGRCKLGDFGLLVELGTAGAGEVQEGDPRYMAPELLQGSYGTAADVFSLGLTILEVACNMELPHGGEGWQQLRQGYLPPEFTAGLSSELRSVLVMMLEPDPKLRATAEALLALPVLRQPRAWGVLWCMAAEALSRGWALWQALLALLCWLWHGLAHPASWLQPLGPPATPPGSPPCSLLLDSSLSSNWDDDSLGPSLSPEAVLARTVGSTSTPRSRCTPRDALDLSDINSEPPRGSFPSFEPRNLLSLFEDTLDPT
# Note: in the data inactive means no Kd found up to 30 µM.
row,Compound,Kd
1,C1=C/COCc2cc(ccc2OCCN2CCCC2)Nc2nccc(n2)-c2cccc(c2)COC/1 [PACRITINIB],> 30 µM (inactive)
2,OCCn1cc(-c2cnc3nnn(Cc4ccc5ncccc5c4)c3n2)cn1 [PF-04217903],> 30 µM (inactive)
3,C=CC(=O)N1CCC(Oc2cc3c(Nc4ccc(Cl)c(Cl)c4F)ncnc3cc2OC)CC1 [POZIOTINIB],> 30 µM (inactive)
4,O=C(Nc1cccc(Cl)c1)Nc1ncc(CCNc2ncnc3ccsc23)s1 [SNS-314],> 30 µM (inactive)
5,COc1cc2nccc(Oc3ccc(NC(=O)Nc4cc(C)on4)c(Cl)c3)c2cc1OC [TIVOZANIB],> 30 µM (inactive)

# Molecular target: T2, Calcium/calmodulin-dependent protein kinase type IV (Homo sapiens, UniProt Q16566)
# T2 sequence (Q16566 whole entry): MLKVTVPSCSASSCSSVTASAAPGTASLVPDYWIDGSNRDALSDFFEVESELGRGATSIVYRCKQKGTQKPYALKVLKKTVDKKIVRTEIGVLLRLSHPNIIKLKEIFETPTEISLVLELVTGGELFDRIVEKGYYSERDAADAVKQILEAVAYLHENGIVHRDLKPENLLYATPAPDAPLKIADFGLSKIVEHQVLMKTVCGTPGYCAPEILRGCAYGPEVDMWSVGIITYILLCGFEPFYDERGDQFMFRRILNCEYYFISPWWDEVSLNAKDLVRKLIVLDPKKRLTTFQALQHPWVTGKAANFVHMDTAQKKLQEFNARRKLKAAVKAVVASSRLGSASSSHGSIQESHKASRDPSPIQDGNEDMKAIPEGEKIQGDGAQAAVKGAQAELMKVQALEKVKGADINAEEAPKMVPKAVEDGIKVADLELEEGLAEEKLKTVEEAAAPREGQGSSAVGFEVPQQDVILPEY
row,Compound,Kd
1,C1=C/COCc2cc(ccc2OCCN2CCCC2)Nc2nccc(n2)-c2cccc(c2)COC/1 [PACRITINIB],> 30 µM (inactive)
2,OCCn1cc(-c2cnc3nnn(Cc4ccc5ncccc5c4)c3n2)cn1 [PF-04217903],> 30 µM (inactive)
3,C=CC(=O)N1CCC(Oc2cc3c(Nc4ccc(Cl)c(Cl)c4F)ncnc3cc2OC)CC1 [POZIOTINIB],> 30 µM (inactive)
4,O=C(Nc1cccc(Cl)c1)Nc1ncc(CCNc2ncnc3ccsc23)s1 [SNS-314],> 30 µM (inactive)
5,COc1cc2nccc(Oc3ccc(NC(=O)Nc4cc(C)on4)c(Cl)c3)c2cc1OC [TIVOZANIB],> 30 µM (inactive)

# Molecular target: Cyclin-dependent kinase 5 (Homo sapiens, UniProt Q00535)
# Sequence (Q00535 whole entry): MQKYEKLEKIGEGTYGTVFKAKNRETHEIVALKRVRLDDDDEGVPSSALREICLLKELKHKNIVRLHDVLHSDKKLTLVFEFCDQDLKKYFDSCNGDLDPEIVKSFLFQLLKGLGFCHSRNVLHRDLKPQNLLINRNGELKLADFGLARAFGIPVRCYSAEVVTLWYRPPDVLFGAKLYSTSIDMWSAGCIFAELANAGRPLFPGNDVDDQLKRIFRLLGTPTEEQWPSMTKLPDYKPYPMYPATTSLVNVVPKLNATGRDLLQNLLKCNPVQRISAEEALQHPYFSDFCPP
row,Compound,Kd
1,C1=C/COCc2cc(ccc2OCCN2CCCC2)Nc2nccc(n2)-c2cccc(c2)COC/1 [PACRITINIB],> 30 µM (inactive)
2,C=CC(=O)N1CCC(Oc2cc3c(Nc4ccc(Cl)c(Cl)c4F)ncnc3cc2OC)CC1 [POZIOTINIB],> 30 µM (inactive)
3,COc1cc2nccc(Oc3ccc(NC(=O)Nc4cc(C)on4)c(Cl)c3)c2cc1OC [TIVOZANIB],> 30 µM (inactive)

# Molecular target: Aurora kinase B (Homo sapiens, UniProt Q96GD4)
# Sequence (Q96GD4 whole entry): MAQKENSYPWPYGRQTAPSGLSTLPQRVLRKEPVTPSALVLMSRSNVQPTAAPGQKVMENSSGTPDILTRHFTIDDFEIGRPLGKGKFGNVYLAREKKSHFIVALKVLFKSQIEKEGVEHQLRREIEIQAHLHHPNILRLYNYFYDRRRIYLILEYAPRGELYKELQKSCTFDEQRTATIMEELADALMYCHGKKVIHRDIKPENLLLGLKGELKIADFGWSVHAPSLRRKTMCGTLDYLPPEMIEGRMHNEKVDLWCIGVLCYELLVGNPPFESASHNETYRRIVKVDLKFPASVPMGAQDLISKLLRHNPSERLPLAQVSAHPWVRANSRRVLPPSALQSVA
row,Compound,Kd
1,C1=C/COCc2cc(ccc2OCCN2CCCC2)Nc2nccc(n2)-c2cccc(c2)COC/1 [PACRITINIB],0.641 µM (active)

# Molecular target: T3, Very long-chain specific acyl-CoA dehydrogenase, mitochondrial (Homo sapiens, UniProt P49748)
# T3 sequence (P49748 whole entry): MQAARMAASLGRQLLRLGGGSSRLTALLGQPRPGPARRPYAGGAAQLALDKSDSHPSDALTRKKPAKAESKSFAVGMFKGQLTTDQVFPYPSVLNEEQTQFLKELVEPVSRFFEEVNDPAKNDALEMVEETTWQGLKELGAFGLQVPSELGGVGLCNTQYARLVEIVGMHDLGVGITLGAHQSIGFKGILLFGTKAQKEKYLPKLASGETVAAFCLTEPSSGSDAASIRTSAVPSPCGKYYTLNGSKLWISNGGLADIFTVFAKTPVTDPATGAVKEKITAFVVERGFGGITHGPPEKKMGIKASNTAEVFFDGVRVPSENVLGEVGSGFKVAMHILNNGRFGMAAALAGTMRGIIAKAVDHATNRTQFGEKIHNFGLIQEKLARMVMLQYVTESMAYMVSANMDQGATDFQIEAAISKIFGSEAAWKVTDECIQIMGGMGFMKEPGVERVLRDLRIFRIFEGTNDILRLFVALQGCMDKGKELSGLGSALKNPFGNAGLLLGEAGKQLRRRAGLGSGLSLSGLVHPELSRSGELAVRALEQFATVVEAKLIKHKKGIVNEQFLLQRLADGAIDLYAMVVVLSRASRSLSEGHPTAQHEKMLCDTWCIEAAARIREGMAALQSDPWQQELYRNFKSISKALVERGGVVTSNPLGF
row,Compound,Kd
1,CN1CCN(c2ccc3nc(-c4c(N)c5c(F)cccc5[nH]c4=O)[nH]c3c2)CC1 [DOVITINIB],> 30 µM (inactive)
2,CCn1c(-c2nonc2N)nc2c(C#CC(C)(C)O)ncc(OC[C@H]3CCCNC3)c21 [GSK-690693],> 30 µM (inactive)
3,Cc1cn(-c2cc(NC(=O)c3ccc(C)c(Nc4nccc(-c5cccnc5)n4)c3)cc(C(F)(F)F)c2)cn1 [NILOTINIB],> 30 µM (inactive)
4,C1=C/COCc2cc(ccc2OCCN2CCCC2)Nc2nccc(n2)-c2cccc(c2)COC/1 [PACRITINIB],> 30 µM (inactive)
5,OCCn1cc(-c2cnc3nnn(Cc4ccc5ncccc5c4)c3n2)cn1 [PF-04217903],> 30 µM (inactive)
6,C=CC(=O)N1CCC(Oc2cc3c(Nc4ccc(Cl)c(Cl)c4F)ncnc3cc2OC)CC1 [POZIOTINIB],> 30 µM (inactive)
7,O=C(Nc1cccc(Cl)c1)Nc1ncc(CCNc2ncnc3ccsc23)s1 [SNS-314],> 30 µM (inactive)
8,Nc1nc(N)c2nc(-c3cccc(O)c3)c(-c3cccc(O)c3)nc2n1 [TG100-115],1.69 µM
9,COc1cc2nccc(Oc3ccc(NC(=O)Nc4cc(C)on4)c(Cl)c3)c2cc1OC [TIVOZANIB],> 30 µM (inactive)

# Molecular target: Ribosomal protein S6 kinase alpha-1 (Homo sapiens, UniProt Q15418)
# Sequence (Q15418 whole entry): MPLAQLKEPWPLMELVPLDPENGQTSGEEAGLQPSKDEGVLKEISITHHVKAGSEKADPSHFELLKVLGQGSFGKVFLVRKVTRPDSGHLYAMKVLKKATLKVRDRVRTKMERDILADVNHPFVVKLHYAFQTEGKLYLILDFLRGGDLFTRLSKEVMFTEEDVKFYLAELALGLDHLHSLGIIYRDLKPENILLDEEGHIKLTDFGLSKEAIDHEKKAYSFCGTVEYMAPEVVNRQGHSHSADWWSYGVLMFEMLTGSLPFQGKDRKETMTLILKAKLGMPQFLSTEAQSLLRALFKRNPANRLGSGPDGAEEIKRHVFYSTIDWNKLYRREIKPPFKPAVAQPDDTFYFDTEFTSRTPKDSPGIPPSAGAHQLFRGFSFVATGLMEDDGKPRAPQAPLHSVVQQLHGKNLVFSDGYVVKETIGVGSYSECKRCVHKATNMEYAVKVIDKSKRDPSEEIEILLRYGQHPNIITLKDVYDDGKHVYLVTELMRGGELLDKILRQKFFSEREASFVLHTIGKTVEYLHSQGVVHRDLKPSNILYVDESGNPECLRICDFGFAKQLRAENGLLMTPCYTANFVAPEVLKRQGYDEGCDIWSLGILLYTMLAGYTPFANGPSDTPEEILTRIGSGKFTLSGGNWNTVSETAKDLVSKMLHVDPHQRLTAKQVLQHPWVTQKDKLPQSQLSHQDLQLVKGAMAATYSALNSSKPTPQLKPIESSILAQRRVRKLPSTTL
row,Compound,Kd
1,C1=C/COCc2cc(ccc2OCCN2CCCC2)Nc2nccc(n2)-c2cccc(c2)COC/1 [PACRITINIB],> 30 µM (inactive)
2,OCCn1cc(-c2cnc3nnn(Cc4ccc5ncccc5c4)c3n2)cn1 [PF-04217903],> 30 µM (inactive)
3,C=CC(=O)N1CCC(Oc2cc3c(Nc4ccc(Cl)c(Cl)c4F)ncnc3cc2OC)CC1 [POZIOTINIB],> 30 µM (inactive)
4,O=C(Nc1cccc(Cl)c1)Nc1ncc(CCNc2ncnc3ccsc23)s1 [SNS-314],> 30 µM (inactive)
5,COc1cc2nccc(Oc3ccc(NC(=O)Nc4cc(C)on4)c(Cl)c3)c2cc1OC [TIVOZANIB],> 30 µM (inactive)

# Molecular target: Serine/threonine-protein kinase 10 (Homo sapiens, UniProt O94804)
row,Compound,Kd
1,OCCn1cc(-c2cnc3nnn(Cc4ccc5ncccc5c4)c3n2)cn1 [PF-04217903],> 30 µM (inactive)
2,C=CC(=O)N1CCC(Oc2cc3c(Nc4ccc(Cl)c(Cl)c4F)ncnc3cc2OC)CC1 [POZIOTINIB],> 30 µM (inactive)
3,O=C(Nc1cccc(Cl)c1)Nc1ncc(CCNc2ncnc3ccsc23)s1 [SNS-314],> 30 µM (inactive)
4,COc1cc2nccc(Oc3ccc(NC(=O)Nc4cc(C)on4)c(Cl)c3)c2cc1OC [TIVOZANIB],4.62 µM (active)

# Molecular target: Insulin receptor (Homo sapiens, UniProt P06213)
# Sequence (P06213 28-758 limits assumed): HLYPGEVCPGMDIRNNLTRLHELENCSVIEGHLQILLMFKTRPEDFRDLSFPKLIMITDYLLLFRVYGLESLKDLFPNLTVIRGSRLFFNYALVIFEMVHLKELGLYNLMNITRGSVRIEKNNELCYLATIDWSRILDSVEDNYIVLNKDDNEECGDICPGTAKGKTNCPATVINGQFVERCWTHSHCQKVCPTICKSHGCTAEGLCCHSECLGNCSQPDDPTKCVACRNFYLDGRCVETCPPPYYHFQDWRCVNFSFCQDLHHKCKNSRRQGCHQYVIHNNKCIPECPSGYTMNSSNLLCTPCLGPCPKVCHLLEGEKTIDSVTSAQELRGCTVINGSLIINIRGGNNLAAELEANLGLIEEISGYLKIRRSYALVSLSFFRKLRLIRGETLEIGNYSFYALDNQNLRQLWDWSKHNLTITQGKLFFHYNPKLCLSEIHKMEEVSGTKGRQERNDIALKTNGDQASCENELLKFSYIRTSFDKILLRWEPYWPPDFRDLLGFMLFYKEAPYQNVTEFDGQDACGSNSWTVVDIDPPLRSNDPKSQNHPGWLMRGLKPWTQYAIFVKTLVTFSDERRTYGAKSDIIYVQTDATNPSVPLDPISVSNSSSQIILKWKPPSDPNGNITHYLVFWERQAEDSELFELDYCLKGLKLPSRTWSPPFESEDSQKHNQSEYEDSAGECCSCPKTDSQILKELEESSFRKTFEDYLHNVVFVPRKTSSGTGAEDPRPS
# Sequence (P06213 763-1382 limits assumed): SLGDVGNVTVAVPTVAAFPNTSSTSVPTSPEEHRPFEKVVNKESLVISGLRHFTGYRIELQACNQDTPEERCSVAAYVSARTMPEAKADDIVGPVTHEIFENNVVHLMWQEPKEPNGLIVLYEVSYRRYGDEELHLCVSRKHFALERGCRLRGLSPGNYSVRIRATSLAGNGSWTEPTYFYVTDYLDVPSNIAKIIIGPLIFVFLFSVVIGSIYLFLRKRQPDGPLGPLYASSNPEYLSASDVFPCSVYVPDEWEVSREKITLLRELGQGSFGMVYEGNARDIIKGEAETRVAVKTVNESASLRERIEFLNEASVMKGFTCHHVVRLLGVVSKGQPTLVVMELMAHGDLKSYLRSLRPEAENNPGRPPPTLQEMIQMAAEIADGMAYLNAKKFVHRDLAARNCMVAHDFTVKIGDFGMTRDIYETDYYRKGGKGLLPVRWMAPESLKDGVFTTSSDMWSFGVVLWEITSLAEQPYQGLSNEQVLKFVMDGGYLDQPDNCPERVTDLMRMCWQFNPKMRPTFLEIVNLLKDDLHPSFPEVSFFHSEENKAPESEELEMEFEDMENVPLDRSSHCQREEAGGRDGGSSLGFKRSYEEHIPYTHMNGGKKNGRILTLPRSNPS
row,Compound,Kd
1,C1=C/COCc2cc(ccc2OCCN2CCCC2)Nc2nccc(n2)-c2cccc(c2)COC/1 [PACRITINIB],> 30 µM (inactive)
2,OCCn1cc(-c2cnc3nnn(Cc4ccc5ncccc5c4)c3n2)cn1 [PF-04217903],> 30 µM (inactive)
3,C=CC(=O)N1CCC(Oc2cc3c(Nc4ccc(Cl)c(Cl)c4F)ncnc3cc2OC)CC1 [POZIOTINIB],> 30 µM (inactive)
4,COc1cc2nccc(Oc3ccc(NC(=O)Nc4cc(C)on4)c(Cl)c3)c2cc1OC [TIVOZANIB],> 30 µM (inactive)

# Molecular target: Cyclin-dependent kinase 7 (Homo sapiens, UniProt P50613)
# Sequence (P50613 whole entry): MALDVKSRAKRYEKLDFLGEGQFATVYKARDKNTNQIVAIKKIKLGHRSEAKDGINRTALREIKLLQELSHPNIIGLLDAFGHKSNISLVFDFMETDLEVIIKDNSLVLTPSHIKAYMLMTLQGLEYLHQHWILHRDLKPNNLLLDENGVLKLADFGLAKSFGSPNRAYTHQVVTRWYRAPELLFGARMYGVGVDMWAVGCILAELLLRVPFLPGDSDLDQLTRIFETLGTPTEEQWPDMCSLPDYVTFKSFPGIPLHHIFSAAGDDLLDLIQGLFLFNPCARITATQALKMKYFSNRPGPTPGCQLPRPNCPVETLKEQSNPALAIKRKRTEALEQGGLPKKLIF
row,Compound,Kd
1,C1=C/COCc2cc(ccc2OCCN2CCCC2)Nc2nccc(n2)-c2cccc(c2)COC/1 [PACRITINIB],> 30 µM (inactive)
2,C=CC(=O)N1CCC(Oc2cc3c(Nc4ccc(Cl)c(Cl)c4F)ncnc3cc2OC)CC1 [POZIOTINIB],> 30 µM (inactive)
3,COc1cc2nccc(Oc3ccc(NC(=O)Nc4cc(C)on4)c(Cl)c3)c2cc1OC [TIVOZANIB],> 30 µM (inactive)

# Molecular target: T4, Serine/threonine-protein kinase D3 (Homo sapiens, UniProt O94806)
# T4 sequence (O94806 whole entry): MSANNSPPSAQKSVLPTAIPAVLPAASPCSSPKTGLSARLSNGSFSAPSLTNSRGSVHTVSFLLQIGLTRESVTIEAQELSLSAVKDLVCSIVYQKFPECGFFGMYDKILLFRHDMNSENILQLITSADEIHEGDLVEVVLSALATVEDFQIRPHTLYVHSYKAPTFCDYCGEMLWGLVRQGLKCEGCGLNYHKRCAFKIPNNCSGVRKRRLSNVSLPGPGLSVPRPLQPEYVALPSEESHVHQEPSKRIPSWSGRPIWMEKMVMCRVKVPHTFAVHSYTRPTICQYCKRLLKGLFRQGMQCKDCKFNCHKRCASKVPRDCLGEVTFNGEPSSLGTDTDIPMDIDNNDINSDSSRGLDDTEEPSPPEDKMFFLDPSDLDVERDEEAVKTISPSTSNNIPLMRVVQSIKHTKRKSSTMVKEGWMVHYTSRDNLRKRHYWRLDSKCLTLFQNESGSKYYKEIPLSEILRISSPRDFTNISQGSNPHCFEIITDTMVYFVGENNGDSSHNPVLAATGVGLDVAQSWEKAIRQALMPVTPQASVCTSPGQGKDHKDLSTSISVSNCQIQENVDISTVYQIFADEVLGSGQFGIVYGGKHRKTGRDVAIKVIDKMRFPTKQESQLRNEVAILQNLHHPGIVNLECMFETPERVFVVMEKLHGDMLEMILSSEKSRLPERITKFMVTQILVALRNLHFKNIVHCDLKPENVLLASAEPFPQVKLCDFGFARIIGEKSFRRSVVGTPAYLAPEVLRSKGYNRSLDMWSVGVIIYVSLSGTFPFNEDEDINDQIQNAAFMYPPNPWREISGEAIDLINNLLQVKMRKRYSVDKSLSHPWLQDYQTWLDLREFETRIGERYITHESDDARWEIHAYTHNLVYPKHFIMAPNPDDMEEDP
row,Compound,Kd
1,C1=C/COCc2cc(ccc2OCCN2CCCC2)Nc2nccc(n2)-c2cccc(c2)COC/1 [PACRITINIB],> 30 µM (inactive)
2,C=CC(=O)N1CCC(Oc2cc3c(Nc4ccc(Cl)c(Cl)c4F)ncnc3cc2OC)CC1 [POZIOTINIB],> 30 µM (inactive)
3,COc1cc2nccc(Oc3ccc(NC(=O)Nc4cc(C)on4)c(Cl)c3)c2cc1OC [TIVOZANIB],> 30 µM (inactive)

# Molecular target: Serine/threonine-protein kinase SIK3 (Homo sapiens, UniProt Q9Y2K2)
row,Compound,Kd
1,C1=C/COCc2cc(ccc2OCCN2CCCC2)Nc2nccc(n2)-c2cccc(c2)COC/1 [PACRITINIB],> 30 µM (inactive)
2,OCCn1cc(-c2cnc3nnn(Cc4ccc5ncccc5c4)c3n2)cn1 [PF-04217903],> 30 µM (inactive)
3,C=CC(=O)N1CCC(Oc2cc3c(Nc4ccc(Cl)c(Cl)c4F)ncnc3cc2OC)CC1 [POZIOTINIB],> 30 µM (inactive)
4,O=C(Nc1cccc(Cl)c1)Nc1ncc(CCNc2ncnc3ccsc23)s1 [SNS-314],> 30 µM (inactive)
5,COc1cc2nccc(Oc3ccc(NC(=O)Nc4cc(C)on4)c(Cl)c3)c2cc1OC [TIVOZANIB],> 30 µM (inactive)

# Molecular target: DNA topoisomerase 2-alpha (Homo sapiens, UniProt P11388)
# Sequence (P11388 whole entry): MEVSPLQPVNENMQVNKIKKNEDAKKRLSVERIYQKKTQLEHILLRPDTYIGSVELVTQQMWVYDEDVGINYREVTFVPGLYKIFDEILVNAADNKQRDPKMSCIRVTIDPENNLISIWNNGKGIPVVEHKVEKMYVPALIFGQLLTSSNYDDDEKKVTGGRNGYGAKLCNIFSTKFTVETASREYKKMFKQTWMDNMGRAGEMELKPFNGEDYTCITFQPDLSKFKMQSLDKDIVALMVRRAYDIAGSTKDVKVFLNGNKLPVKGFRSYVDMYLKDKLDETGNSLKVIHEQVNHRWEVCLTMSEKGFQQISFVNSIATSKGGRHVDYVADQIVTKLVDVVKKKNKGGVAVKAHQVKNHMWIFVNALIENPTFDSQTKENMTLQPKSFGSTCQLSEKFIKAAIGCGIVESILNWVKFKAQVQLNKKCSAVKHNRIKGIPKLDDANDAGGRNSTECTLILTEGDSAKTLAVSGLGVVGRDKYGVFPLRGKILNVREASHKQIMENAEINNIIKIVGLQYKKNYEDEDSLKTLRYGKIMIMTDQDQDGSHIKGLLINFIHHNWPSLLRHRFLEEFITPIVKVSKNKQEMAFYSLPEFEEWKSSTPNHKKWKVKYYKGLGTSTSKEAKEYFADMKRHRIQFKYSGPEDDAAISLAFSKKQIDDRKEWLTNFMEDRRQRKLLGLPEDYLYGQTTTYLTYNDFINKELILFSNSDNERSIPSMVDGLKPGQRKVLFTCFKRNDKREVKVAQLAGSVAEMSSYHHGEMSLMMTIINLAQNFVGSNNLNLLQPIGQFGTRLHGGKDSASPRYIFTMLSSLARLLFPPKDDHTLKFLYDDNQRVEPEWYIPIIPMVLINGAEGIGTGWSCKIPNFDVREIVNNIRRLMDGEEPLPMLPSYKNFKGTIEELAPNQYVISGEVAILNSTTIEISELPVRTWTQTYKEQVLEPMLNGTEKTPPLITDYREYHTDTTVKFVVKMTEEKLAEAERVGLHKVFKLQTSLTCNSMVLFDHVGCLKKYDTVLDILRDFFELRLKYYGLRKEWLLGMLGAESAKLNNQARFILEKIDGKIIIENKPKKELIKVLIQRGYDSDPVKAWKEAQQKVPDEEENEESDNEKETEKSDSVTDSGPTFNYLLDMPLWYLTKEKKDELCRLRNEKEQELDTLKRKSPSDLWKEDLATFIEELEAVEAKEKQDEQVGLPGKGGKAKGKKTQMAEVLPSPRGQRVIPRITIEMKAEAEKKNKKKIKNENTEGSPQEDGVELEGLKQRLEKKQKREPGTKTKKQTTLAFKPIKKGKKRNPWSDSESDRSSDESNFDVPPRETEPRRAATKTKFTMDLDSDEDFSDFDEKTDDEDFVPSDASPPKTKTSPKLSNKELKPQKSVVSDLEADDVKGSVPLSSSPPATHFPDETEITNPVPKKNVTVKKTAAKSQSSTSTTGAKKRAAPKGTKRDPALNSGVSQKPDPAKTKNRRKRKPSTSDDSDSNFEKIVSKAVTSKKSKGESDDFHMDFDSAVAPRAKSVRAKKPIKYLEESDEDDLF
row,Compound,Kd
1,CCn1c(-c2nonc2N)nc2c(C#CC(C)(C)O)ncc(OC[C@H]3CCCNC3)c21 [GSK-690693],> 30 µM (inactive)
2,Cc1cn(-c2cc(NC(=O)c3ccc(C)c(Nc4nccc(-c5cccnc5)n4)c3)cc(C(F)(F)F)c2)cn1 [NILOTINIB],> 30 µM (inactive)
3,OCCn1cc(-c2cnc3nnn(Cc4ccc5ncccc5c4)c3n2)cn1 [PF-04217903],> 30 µM (inactive)
4,C=CC(=O)N1CCC(Oc2cc3c(Nc4ccc(Cl)c(Cl)c4F)ncnc3cc2OC)CC1 [POZIOTINIB],> 30 µM (inactive)
5,O=C(Nc1cccc(Cl)c1)Nc1ncc(CCNc2ncnc3ccsc23)s1 [SNS-314],> 30 µM (inactive)
6,Nc1nc(N)c2nc(-c3cccc(O)c3)c(-c3cccc(O)c3)nc2n1 [TG100-115],> 30 µM (inactive)
7,COc1cc2nccc(Oc3ccc(NC(=O)Nc4cc(C)on4)c(Cl)c3)c2cc1OC [TIVOZANIB],> 30 µM (inactive)
